This note sets out measurements from patent US7312248B2, “Control of parasites in animals by the use of novel trifluoromethanesulfonanilide oxime ether derivatives” (Schering-Plough Animal Health Corporation, priority 2004, dated 2007).

Usually mortality stands for the percentage killed.

Read-outs that look alike come from different tables or passages of the source.

In one series the test system is Haemonchus contortus. Nature of the series: Haemonchus contortus larvacidal (larval development) assay. Conditions: 144 h, read-out: Haemonchus contortus LD99. In kind it is in vivo. On the procedure:
a) Haemonchus Contortus Larvacidal Assay:
The effect of compounds on larval development was determined in the assay described by Gill et al. (1995, International Journal of Parasitology 25:463-470). Briefly, in this assay, nematode eggs were applied to the surface of an agar matrix containing the test compound and then allowed to develop through to the L3, infective stage (6 days). The wells for each dilution of every compound (from highest to lowest concentration) were inspected to determine the well number corresponding to the lowest concentration at which development was inhibited in 99% of the nematode larvae present (LD99). Because well numbers correspond to a two-fold serial dilution of each compound, a titre (dilution factor) is generated as 2^n−1, where n is the well number. By dividing the highest concentration tested by the titre an LD99 value can be obtained, representing the concentration required to inhibit development in 99% of the nematode larvae present. The compounds supplied as solid and viscous liquids were dissolved in DMSO. Twelve serial one-half dilutions in DMSO solution were prepared from the stock solution, each of which was then diluted ⅕ with water. Aliquots (10 μl) of each dilution were transferred to the bioassay plates to give a final concentration range of 0.024 to 50 μg/ml.

The subject of series [1] is cat flea (Ctenocephalides felis). Nature of the series: whole plant or invertebrate. The conditions noted are these: for mortality at 1.26 µg/cm2, 1.26 µg/cm2 / mortality at 1.26 µg/cm2: Ctenocephalides felis. In kind it is in vivo. On the procedure: b) Ctenocephalides felis Adulticide Assay: C. felis Single Dose Screen
Mortality of fleas was the primary endpoint in the assay. Fleas were considered dead if they didn't move or were on their sides and unable to walk or right themselves. […] The concentration chosen (1.26 μg/cm^2) was higher than that known to kill 90% of cat fleas (LC90) using the reference compound, permethrin.
The test species was the cat flea (Ctenocephalides felis). The strain used was obtained from external suppliers as pupae and held in the laboratory under testing conditions until the adults had emerged. Fifteen (15) fleas were used in a minimum of four replicates against a single concentration level (approximately 60 fleas). The insects were selected to be in the adult life stage, aged between 3 and 7 days post emergence.
The compounds to be tested were supplied as solids and were prepared in acetone as described below prior to testing. Samples were stored in a refrigerator (5±1° C.) unless otherwise specified.
During the mortality testing, the temperature was maintained at 25±1° C. Humidity was maintained at 75±5%. The base (area=159 mm^2) of a 100 mL glass Erlenmeyer (conical) flask provided the treatment surface. Flasks were pretreated with Coatasil™ glass treatment to maximise bio-availability of test compounds by preventing them from binding to glass the surface. The base of the 100 mL Erlenmeyer flask was treated with 0.5 mL of test sample in acetone and gently swirled. This volume was sufficient to cover the base of the flask. Flasks were left to dry for 24 hours before flea exposure.
Adult cat fleas were placed into a sorting chamber, which allowed fleas to jump into the Erlenmeyer flasks. Fifteen (15) adult cat fleas were collected in each flask. The top of the flasks were then covered in Parafilm™ and small holes were made to allow gas exchange. A 0.5 mL volume of acetone as a solvent control was applied to the base of an Erlenmeyer flask and the testing proceeded in the same manner described above. Cat fleas in the treatment containers were held under testing conditions for 8, 24 and/or 48 hours. Mortality was recorded at 8, 24, 8 and 24, or 24 and 48 hours. Pooled 8, 24, 8 and 24, and 24 and 48 hour mortality data were converted to percentages and are summarized by Tables 14, 14A and 14B, below.

[2] abbreviates: 48 h, read-out: C. felis Mortality (%) 48 h, 48 h, Laboratory 2 B data.
Setting [3] is: 24 h, read-out: C. felis Mortality (%) 24 h, 24 h, Laboratory 2 B data.
Where [4] appears, read: 8 h, read-out: C. felis Mortality (%) 8 h, 8 h, Laboratory 2 B data.
Setting [5] is: 8 h, read-out: Ctenocephalides felis Mortality (%) 8 h.
[6] abbreviates: 24 h, read-out: Ctenocephalides felis Mortality (%) 24 h.
The mark [7] stands for this setting: 48 h, read-out: Ctenocephalides felis Mortality (%) 48 h.
The mark [8] stands for this setting: 24 h, single concentration 1.26 μg/cm^2 on treated glass, adult fleas, Laboratory 2 B data, read-out: Ctenocephalides felis Mortality (%) 24 h.

Regarding `C/C(=N\OCc1ccc([N+](=O)[O-])cc1)c1cc(Cl)ccc1NS(=O)(=O)C(F)(F)F` [Compound 4], the IC99 in the series on Haemonchus contortus stood at 2.5 µg/mL.
Still for that read-out and setting: then `CC/C(=N\OCc1cccc(Cl)c1)c1cc(Cl)ccc1NS(=O)(=O)C(F)(F)F` [Compound 7], with 1.6 µg/mL; and `CC/C(=N\OCc1c(Cl)cccc1Cl)c1cc(Cl)ccc1NS(=O)(=O)C(F)(F)F` [Compound 8], with 13 µg/mL; and `CC/C(=N\OCc1cccc(C(F)(F)F)c1)c1cc(Cl)ccc1NS(=O)(=O)C(F)(F)F` [Compound 12], with 1.7 µg/mL.
On the same count and under the same terms, then `C/C(=N\OCc1ccccc1C(F)(F)F)c1cc(Cl)ccc1NS(=O)(=O)C(F)(F)F` [Compound 13], with 3 µg/mL; and `C/C(=N\OCc1cccc(C(F)(F)F)c1)c1cc(Cl)ccc1NS(=O)(=O)C(F)(F)F` [Compound 15], with 2.7 µg/mL.
Turning to `CO/N=C(\c1ccccc1)c1cc(Cl)ccc1NS(=O)(=O)C(F)(F)F` [Compound 232], in series [1] (24 h, Laboratory 2 B data), the “C. felis Mortality (%) 24 h” value was 96^B %. In series [1] (setting [2]), the mortality at 1.26 µg/cm2, 1.26 µg/cm2 amounted to 100%.
For the compound `CO/N=C(\c1ccccc1)c1cc(Cl)ccc1NS(=O)(=O)C(F)(F)F` [Compound 233], the “C. felis Mortality (%) 24 h” value in series [1] (24 h, Laboratory 2 B data) is listed as 15^B %. Moreover, the “C. felis Mortality (%) 48 h” value in series [1] (48 h, Laboratory 2 B data) was 96%.
Turning to `CCC(CC)O/N=C(\C)c1ccc(C(F)(F)F)cc1NS(=O)(=O)C(F)(F)F` [Compound 236], the mortality at 1.26 µg/cm2, 1.26 µg/cm2 was determined as 69% in series [1] (setting [3]) and 100% in series [1] (setting [2]).
As to `C/C(=N\OC1CCCCC1)c1ccc(C(F)(F)F)cc1NS(=O)(=O)C(F)(F)F` [Compound 237], the mortality at 1.26 µg/cm2, 1.26 µg/cm2 was found to be 4% in series [1] (setting [3]) and 36% in series [1] (setting [2]).
In the same order, the values of `C/C(=N\OC1C=CCCC1)c1ccc(C(F)(F)F)cc1NS(=O)(=O)C(F)(F)F` (stereo not shown) [Compound 238] are 61% and 84%.
In the same order, the values of `C/C(=N\OC1CCCC1)c1ccc(C(F)(F)F)cc1NS(=O)(=O)C(F)(F)F` [Compound 239] are 86% and 100%.
On the same counts, the results for `C/C(=N\OCC(C)C)c1ccc(C(F)(F)F)cc1NS(=O)(=O)C(F)(F)F` [Compound 240] are 64% and 98%.
For the compound `C/C(=N\OCCC(C)C)c1cc(Cl)ccc1NS(=O)(=O)C(F)(F)F` [Compound 246], the mortality at 1.26 µg/cm2, 1.26 µg/cm2 in series [1] (setting [3]) amounted to 98%; in series [1] (setting [2]) it was 100%.
On to `CC/C(=N\OCCC(C)C)c1cc(Cl)ccc1NS(=O)(=O)C(F)(F)F` [Compound 248], for which, in series [1] (24 h, Laboratory 2 B data), the “C. felis Mortality (%) 24 h” value was 96^B %. The “C. felis Mortality (%) 48 h” value in series [1] (48 h, Laboratory 2 B data) worked out at 100%.
Take `CC/C(=N\OCC=C(C)C)c1cc(Cl)ccc1NS(=O)(=O)C(F)(F)F` [Compound 250]: the mortality at 1.26 µg/cm2, 1.26 µg/cm2 in series [1] (setting [3]) came to 97%; in series [1] (setting [2]), 100%.
Regarding `CCCO/N=C(\c1ccccc1)c1cc(Cl)ccc1NS(=O)(=O)C(F)(F)F` [Compound 251], the “C. felis Mortality (%) 24 h” value in series [1] (24 h, Laboratory 2 B data) is reported as 32^B %. In series [1] (setting [2]), the mortality at 1.26 µg/cm2, 1.26 µg/cm2 was determined as 100%.
On to `CCCO/N=C(\c1ccccc1)c1cc(Cl)ccc1NS(=O)(=O)C(F)(F)F` [Compound 252], for which the “C. felis Mortality (%) 24 h” value in series [1] (24 h, Laboratory 2 B data) was 15^B %. In addition, in series [1] (48 h, Laboratory 2 B data), the “C. felis Mortality (%) 48 h” value is recorded as 100%.
In the case of `CC/C(=N\OC(C)C1CC1)c1cc(Cl)ccc1NS(=O)(=O)C(F)(F)F` (stereo not shown) [Compound 254], the figures for the mortality at 1.26 µg/cm2, 1.26 µg/cm2 in series [1] (setting [3]) and in series [1] (setting [2]) were 84% and 100%, respectively.
Turning to `CC/C(=N\OC(CC)c1ccccc1)c1cc(Cl)ccc1NS(=O)(=O)C(F)(F)F` (stereo not shown) [Compound 256], the mortality at 1.26 µg/cm2, 1.26 µg/cm2 was 0% in series [1] (setting [4]) and 84% in series [1] (setting [3]).
On the same counts, the results for `C/C(=N\OC(C)c1ccc(Cl)cc1Cl)c1cc(Cl)ccc1NS(=O)(=O)C(F)(F)F` (stereo not shown) [Compound 258] are 8% and 88%.
In the same order, the values of `CC/C(=N\OC(C)c1ccc(Cl)cc1Cl)c1cc(Cl)ccc1NS(=O)(=O)C(F)(F)F` (stereo not shown) [Compound 259] are 0% and 71%.
For `O=S(=O)(Nc1ccc(Cl)cc1-c1cc(C2CCCCC2)on1)C(F)(F)F` [Compound 292], the mortality at 1.26 µg/cm2 in series [1] (setting [5]) came to 15%; in series [1] (setting [6]) it was 92%.
With `O=S(=O)(Nc1ccc(Cl)cc1-c1noc2c1CCCC2)C(F)(F)F` [Compound 294], the mortality at 1.26 µg/cm2 in series [1] (setting [5]) is 3%; in series [1] (setting [6]), 40%.
Regarding `CCCc1conc1-c1cc(Cl)ccc1NS(=O)(=O)C(F)(F)F` [Compound 295], the mortality at 1.26 µg/cm2 in series [1] (setting [5]) worked out at 0%; in series [1] (setting [6]), 44%.
Take `C/C(=N\OCc1ccc(Cl)cc1)c1cc(Cl)ccc1N(C)S(=O)(=O)C(F)(F)F` [Compound 296]: the figures for the mortality at 1.26 µg/cm2 in series [1] (setting [6]) and in series [1] (setting [7]) were 0% and 19%, respectively.
`CC/C(=N\OCc1ccc(Cl)cc1)c1cc(Cl)ccc1N(C)S(=O)(=O)C(F)(F)F` [Compound 297]: the mortality at 1.26 µg/cm2 in series [1] (setting [6]) came to 1%; in series [1] (setting [7]) it was 28%.
In the same order, the values of `C/C(=N\Oc1ccc(F)cc1)c1cc(Cl)ccc1N(C)S(=O)(=O)C(F)(F)F` [Compound 298] are 1% and 12%.
In the case of `CCOCN(c1ccc(Cl)cc1/C(C)=N/Oc1ccc(F)cc1)S(=O)(=O)C(F)(F)F` [Compound 299], the mortality at 1.26 µg/cm2 in series [1] (setting [6]) was 0%; in series [1] (setting [7]), 56%.
`CC/C(=N\OCC1CCCCC1)c1cc(Cl)ccc1N(C)S(=O)(=O)C(F)(F)F` [Compound 300]: the mortality at 1.26 µg/cm2 in series [1] (setting [6]) stood at 0%; in series [1] (setting [7]) it was 9%.
With `CCOCN(c1ccc(Cl)cc1/C(CC)=N/OCC1CCCCC1)S(=O)(=O)C(F)(F)F` [Compound 301], the mortality at 1.26 µg/cm2 in series [1] (setting [6]) is 1%; in series [1] (setting [7]) it was 19%.
In the same order, the values of `CC/C(=N\OCC1CCCCC1)c1cc(Cl)ccc1N(COC(=O)C(C)(C)C)S(=O)(=O)C(F)(F)F` [Compound 304] are 0% and 81%.
Consider `C/C(=N\Oc1ccc(F)cc1)c1cc(Cl)ccc1N(COC(=O)C(C)(C)C)S(=O)(=O)C(F)(F)F` [Compound 305], for which the mortality at 1.26 µg/cm2 in series [1] (setting [6]) was found to be 1%; in series [1] (setting [7]), 21%.
As for `CCOC(=O)N(c1ccc(Cl)cc1/C(CC)=N/OCc1ccc(Cl)cc1)S(=O)(=O)C(F)(F)F` [Compound 306], the mortality at 1.26 µg/cm2 was found to be 0% in series [1] (setting [8]) and 48% in series [1] (48 h, single concentration 1.26 μg/cm^2 on treated glass, adult fleas, Laboratory 2 B data, read-out: Ctenocephalides felis Mortality (%) 48 h).
Consider `CCCC(=O)OCN(c1ccc(Cl)cc1/C(CC)=N/Oc1ccc(Cl)cc1)S(=O)(=O)C(F)(F)F` [Compound 309], for which the figures for the mortality at 1.26 µg/cm2 in series [1] (setting [5]) and in series [1] (setting [6]) were 3% and 86%, respectively.
On the same counts, the results for `CC/C(=N\OCC1CCCCC1)c1cc(Cl)ccc1N(C(C)=O)S(=O)(=O)C(F)(F)F` [Compound 311] are 14% and 76%.
On the same counts, the results for `CCCC(=O)OCN(c1ccc(Cl)cc1/C(C)=N/Oc1ccc(F)cc1)S(=O)(=O)C(F)(F)F` [Compound 312] are 11% and 89%.
`CCOC(=O)N(c1ccc(Cl)cc1/C(CC)=N/OCC1CCCCC1)S(=O)(=O)C(F)(F)F` [Compound 313]: the mortality at 1.26 µg/cm2 turned out to be 0% in series [1] (8 h, single concentration 1.26 μg/cm^2 on treated glass, adult fleas, Laboratory 2 B data, read-out: Ctenocephalides felis Mortality (%) 8 h) and 59% in series [1] (setting [8]).
